{
  "source": "paper PMC10257291",
  "about": "“Biological activities of extracts and compounds from Thai Kae-Lae (Maclura cochinchinensis (Lour.) Corner)” (BMC Complementary Medicine and Therapies, 2023)",
  "key": {"[1]": {"tested_on": "TNF-α", "experiment": "TNF-α secretion in LPS-stimulated RAW 264.7 cells (ELISA)", "type": "cell-based, mouse", "conditions": "sample at IC20 value; vs dexamethasone 1 μg/mL; LPS 1 μg/mL", "description": "Mouse monocyte macrophage RAW 264.7 cells (American Type Culture Collection, […]-71) were stimulated with lipopolysaccharide (LPS) or phytohemagglutinin (PHA). The LPS treated RAW 264.7 cells served as a vehicle control, of which the NO production, and the secreted cytokines were defined as 100%, whereas a negative control was non-treated RAW 264.7 cells. Dexamethasone (an anti-inflammatory drug) was used as a positive control. PBMCs (1 × 10^5 cells/well in RPMI-1640 for IL-2) and Raw cells (1 × 10^5 cells/well in DMEM for TNF-α) were seeded for 24 h in a CO2 incubator set at 37 °C and 5% CO2/95% humidified air. Then cells were treated with […] fractional extracts (IC20 value) or pure compounds (IC20 value), or dexamethasone (1 μg/mL) were added. […] After 24 h, the media were removed and centrifuged at 13,500 × g for 10 min and 100 μL of the supernatant was analysed by the protocol of R&D Systems, Minneapolis, MN, USA using ELISA technique. The absorbance was measured at 450 nm and corrected with the reference wavelength of 570 nm (Beckman CoulterDTX880, Fullerton, CA, USA). Viability of PBMCs and RAW 264.7 cells was also determined using MTT assay as described previously. IL-2 and TNF-α secretion inhibitions were calculated as bellow:4 %Cytokineinhibition=A-B/A×100 A is the optical density of the mixture without the sample, while B is the optical density of the mixture with the sample. […]"}, "[2]": {"tested_on": "EoL-1 cells", "experiment": "Total cell number by trypan blue exclusion, EoL-1 cells", "type": "cell-based, human", "conditions": "IC20 value, 48 h, vs vehicle control", "method": "(§1) According to the principle of trypan blue exclusion, viable cells with intact membranes can exclude trypan blue dye, while dead cells with compromised membranes are stained by the trypan blue dye solution. A cell suspension and trypan blue dye solution (0.2%) were mixed, and viable and dead cells were counted under microscope using a hemacytometer. Then, the percentage of viable cells was calculated. KG-1a, EoL-1 and K562 cells were cultured with crude fractional extracts and active pure compounds at various concentrations (10 − 20% growth inhibition; IC10 − IC20 values) of each extract for 48 h, at a 20% growth inhibition (IC20 value) of each extract for 24 and 48 h. Following incubation, cells were harvested, and the total cell number was counted using trypan blue exclusion method. Three independent experiments were plotted as a dose–response curve and compared with the vehicle control. Meanwhile, the total cell number of each cell line after fractional extract and pure compound treatments at 24 and 48 h were calculated and plotted as a time-response curve. Slopes from each graph were considered as the rate of cell proliferation."}, "[3]": {"experiment": "ABTS assay", "conditions": "compared in words", "method": "Briefly, the sample (20 μL) was mixed with of the ABTS^•^+ solution (180 μL) that had been prepared overnight. The combined mixture was incubated at room temperature (25 °C) for 5 min before assessing the UV absorbance at 750 nm with a microplate reader (Spectrostar Nano, BMG Labtech GmbH, Ortenberg, Germany). The findings were described as Trolox equivalent antioxidant capacity (TEAC). All experiments were conducted in triplicate."}, "[4]": {"tested_on": "KG-1a cells", "experiment": "Rate of proliferation, KG-1a cells", "type": "cell-based, human", "conditions": "for decrease of rate of proliferation, KG-1a cells: IC20 value, 24 and 48 h (time-response), vs control; for rate of cell proliferation, KG-1a cells (in words): concentrations IC10 − IC20 values, 48 h", "method": "as §1"}, "[5]": {"experiment": "FRAP assay", "conditions": "compared in words", "method": "Briefly, sample (20 μL) was mixed with FRAP solution (180 μL). The combined mixture was incubated at room temperature (25 °C) in the dark for 5 min before assessing the UV absorbance was measured at 595 nm with a microplate reader (Beckman CoulterDTX880, Fullerton, CA, USA). The findings were described as equivalent concentration (EC1). L-ascorbic acid served as a positive control. All experiments were conducted in triplicate."}, "[6]": {"experiment": "DPPH assay", "conditions": "compared in words", "method": "The DPPH^• scavenging activity of crude fractional extracts and their biological active compounds were investigated using DPPH assay. Briefly, the sample (20 μL) was mixed with 167 μM DPPH solution (180 μL). The combined mixture was incubated at room temperature (25 °C) in the dark for 30 min before assessing the UV absorbance at 520 nm with a microplate reader (Beckman CoulterDTX880, Fullerton, CA, USA). The DPPH^• scavenging activity was presented in terms of the percentage of inhibition that was calculated using the following equation: 2 %DPPH^·inhibition=A-B/A×100 A is the UV absorbance of the mixture in the absence of a sample solution, and B is the UV absorbance of the mixture in the […] of a sample solution. L-ascorbic acid served as a positive control. All experiments were conducted in triplicate."}, "[7]": {"tested_on": "MCF-7 cells", "experiment": "Cell migration assay (wound healing scratch)", "type": "cell-based, human", "conditions": "non-toxic dose, after 24 h of wounding", "method": "Inhibitory effect of the extracts on cell migration of MCF-7 cells was assessed by wound healing scratch assays. First, cells were plated into 24-well plates and incubated in a CO2 incubator with humidified atmosphere of 5% CO2. After reaching the confluent monolayer forms, a longitudinal wound was created by scratching using SPLTM Scar Scratcher. Then, the non-toxic dose of each extract in complete DMEM medium was added into each well and cell migration was monitored and observed under Leica DM IL LED inverted microscopy and the images of cell-free area were captured at 0, 6, 12, and 24 h after wounding, then measured using ImageJ software. The percentage of wound width was calculated by the following formula:6 Woundwidth(%)=(Cell-[…] Where “Cell-free […]” is the cell-free area at any time point of imaging while “Cell-free area0.h” is the cell-free area at the beginning of wounding."}, "[8]": {"tested_on": "WT1 protein", "experiment": "WT1 protein expression by Western blot in KG-1a cells", "type": "cell-based, human", "conditions": "IC20 value, 48 h, vs vehicle control", "method": "Leukaemic stem cells (KG-1a) and leukaemic cells (EoL-1 and K562) were used as cell models which overexpressed WT1 protein expression. Cells were treated with crude fractional extracts and active compounds at a 20% growth inhibition (IC20 value) of each extract. Following 48-h of incubation, cells were washed. The whole protein was extracted using RIPA buffer. The protein concentration was determined by the Pierce™ BCA Protein Assay Kit (ThermoFisher Scientific, IL, USA). Extracted protein sample at 30 − 50 μg was loaded to 12% SDS-PAGE and then transferred to PVDF membranes. The method was done as previously described. The specific protein bands were determined by Luminata™ Forte Western HRP substrate (Merck, Darmstadt, Germany) and exposed to X-ray film (Sakura, Japan). Quantity One 1-D Analysis software (Bio-Rad, USA) was used to quantify densitometry. The density values of WT1 bands were normalized to GAPDH bands."}, "[9]": {"tested_on": "KG-1a cells", "experiment": "Total cell number by trypan blue exclusion, KG-1a cells", "type": "cell-based, human", "conditions": "IC20 value, 48 h, vs vehicle control", "method": "as §1"}},
  "data": [
    {"smiles": "O=c1c(O)c(-c2ccc(O)c(O)c2)oc2cc(O)cc(O)c12", "note": "[Quercetin, quercetin]", "values": [
      {"measurement": "TNF-α inhibition", "setting": "[1]", "value": "significantly more potent inhibition of IL-2, TNF-α, and NO than dexamethasone"},
      {"measurement": "decrease of total cell number, EoL-1 cells", "setting": "[2]", "value": 23.25, "unit": "%"},
      {"measurement": "TEAC (ABTS antioxidant activity)", "setting": "[3]", "value": "comparable TEAC and EC1 values with those of ascorbic acid"},
      {"measurement": "decrease of rate of proliferation, KG-1a cells", "setting": "[4]", "value": "significantly decreasing rates of proliferation"},
      {"measurement": "rate of cell proliferation, KG-1a cells (in words)", "setting": "[4]", "value": "significantly decreasing rate of cell proliferation"},
      {"measurement": "EC1 (FRAP antioxidant activity)", "setting": "[5]", "value": "comparable TEAC and EC1 values with those of ascorbic acid"},
      {"measurement": "DPPH• inhibition", "setting": "[6]", "value": "significantly more potent than ascorbic acid"}
    ]},
    {"smiles": "O=c1c(O)c(-c2ccc(O)cc2O)oc2cc(O)cc(O)c12", "note": "[Morin, 2’,3,4’,5,7-pentahydroxyflavonone]", "values": [
      {"measurement": "TEAC (ABTS antioxidant activity)", "setting": "[3]", "value": "comparable TEAC and EC1 values with those of ascorbic acid"},
      {"measurement": "wound width", "setting": "[7]", "value": "60.5 ± 3.8", "unit": "%"},
      {"measurement": "EC1 (FRAP antioxidant activity)", "setting": "[5]", "value": "comparable TEAC and EC1 values with those of ascorbic acid"},
      {"measurement": "suppression of WT1 protein expression in KG-1a cells", "setting": "[8]", "value": "32.89 ± 8.76", "unit": "%"},
      {"measurement": "DPPH• inhibition", "setting": "[6]", "value": "significantly more potent than ascorbic acid"}
    ]},
    {"smiles": "Oc1ccc(/C=C/c2cc(O)cc(O)c2)cc1", "note": "[Resveratrol, resveratrol]", "values": [
      {"measurement": "decrease of total cell number, EoL-1 cells", "setting": "[2]", "value": 74.14, "unit": "%"},
      {"measurement": "decrease of rate of proliferation, KG-1a cells", "setting": "[4]", "value": 86.02, "unit": "%"},
      {"measurement": "rate of cell proliferation, KG-1a cells (in words)", "setting": "[4]", "value": "significantly decreasing rate of cell proliferation"},
      {"measurement": "wound width", "setting": "[7]", "value": "32.8 ± 0.7", "unit": "%"},
      {"measurement": "suppression of WT1 protein expression in KG-1a cells", "setting": "[8]; listed as resveratrol", "value": "60.27 ± 11.44", "unit": "%"},
      {"measurement": "decrease of total cell number, KG-1a cells", "setting": "[9]", "value": 39.23, "unit": "%"}
    ]}
  ]
}
